{"source": "patent US10682420B2", "about": "“Breast cancer therapy based on hormone receptor status with nanoparticles comprising taxane” (Abraxis BioScience, LLC, priority 2006, dated 2020)", "key": {"[1]": {"conditions": "mouse, in vivo", "quoted_text": "Methods: Toxicity of Abraxane® and Taxotere® was compared in a dose-ranging study in nude mice given the drugs on a q4d×3 schedule."}, "metastatic breast cancer": {"tested_on": "metastatic breast cancer", "conditions": "in vivo", "quoted_text": "Patients were HER-2/neu negative with a life expectancy of greater than 3 months. Patients had no prior chemotherapy for metastatic disease, no prior capecitabine therapy, and no prior fluoropyrimidine therapy and paclitaxel chemotherapy given in an adjuvant setting.\nThe primary endpoint was objective response rate and safety/toxicity, with evaluation performed after every 2 cycles. A secondary endpoint was time to progression."}, "[2]": {"tested_on": "Luciferase-expressing MDA-MB-231 human breast cancer xenografts", "test": "Abraxane and Avastin on growth of luciferase-expressing MDA-MB-231 xenografts", "type": "in vivo, female nude (nu/nu) mice", "protocol": "Abraxane®, either alone or in combination, was administered at 10 mg/kg/day daily for 5 days in two cycles separated by 1 week. Some groups were administered Abraxane® at 10 mg/kg daily for 5 days for only one cycle. […] Mice were monitored for tumor growth and drug toxicity. Mice were sacrificed when the mean tumor volume in the saline-treated control group reached 2000 mm^3.\nTumor growth inhibition (TGI) was calculated by comparing mean tumor volume of test groups to that of the control group at the last measurement of the control group."}, "[3]": {"tested_on": "metastasis of luciferase-expressing MDA-MB-231 tumor cells to the lymph nodes and lungs", "test": "Abraxane and Avastin on metastasis by luciferase activity", "type": "in vivo, female nude (nu/nu) mice", "protocol": "Abraxane®, either alone or in combination, was administered at 10 mg/kg/day daily for 5 days in two cycles separated by 1 week. Some groups were administered Abraxane® at 10 mg/kg daily for 5 days for only one cycle. […] Mice were sacrificed when the mean tumor volume in the saline-treated control group reached 2000 mm^3. Axillary lymph nodes and both lobes of the lungs were removed from each mouse and cellular extracts were prepared. The presence of MDA-MB-231 cells in these tissues was evaluated by analysis of luciferase activity and was an indicator of metastasis from the primary tumor. Luciferase activity was measured in extracts from 10 lymph nodes and both lobes of the lungs on the day of sacrifice (day 65 after tumor implantation). A value greater than 500 light units per 20 μl lysate was rated as positive for presence of MDA-MB-231 cells and for incidence of metastasis.\nAs used herein, incidence refers to the presence of luciferase activity in tissue from each mouse."}, "cells [4]": {"tested_on": "cells", "test": "In vitro cellular cytotoxicity assay", "type": "cell-based", "conditions": "Abraxane 1 to 24 nM", "protocol": "Cells were treated with Abraxane® in a range of concentrations (1 to 24 nM)."}, "cells [5]": {"tested_on": "cells", "test": "In vitro clonogenic assay", "type": "cell-based", "protocol": "Cells were treated with saline control, Abraxane® alone, VEGF-A alone, Avastin® alone, Abraxane®+VEGF-A or Abraxane®+Avastin®."}, "[6]": {"tested_on": "MDA-MB-435 human breast tumor xenografts", "test": "HKP and Abraxane in MDA-MB-435 xenografts", "type": "in vivo, mice", "conditions": "nineteen weeks of treatment; HKP 250 ug i.v. weekly x16; Abraxane 10 mg/kg/day i.v. x5 days", "description": "The antiangiogenic activity of small synthetic pro-apoptotic peptides composed of two functional domains, one targeting the CD13 receptors (aminopeptidase N) on tumor microvessels and the other disrupting the mitochondrial membrane following internalization have previously been reported. See Nat Med. 1999 September; 5(9): 1032-8.\nMethods: MDA-MB-435 human tumor xenografts were established at an average tumor volume of 100 mm^3, mice were randomized into groups of 12-13 animals and treated with HKP, Abraxane®, or HKP and Abraxane®. HKP was delivered i.v. (250 ug), once a week, for 16 weeks. Abraxane® was administered i.v., daily for 5 days at 10 mg/kg/day only for the first week of treatment. The Abraxane® dose used was substantially below its MTD (30 mg/kg/day, qd×5) to prevent the tumor from complete regression so effect of HKP could be noted."}}, "data": [{"molecule": "Taxotere®", "values": [{"measurement": "maximum tolerated dose (MTD)", "setting": "[1]", "value": 15, "unit": "mg/kg"}]}, {"molecule": "CCCCCOC(=O)Nc1nc(=O)n([C@@H]2O[C@H](C)[C@@H](O)[C@H]2O)cc1F", "note": "[capecitabine]", "values": [{"measurement": "main toxicity related to the agent within the combination", "setting": "metastatic breast cancer", "value": "hand foot syndrome"}]}, {"molecule": "Avastin®: anti-VEGF antibody", "values": [{"measurement": "% TGI", "setting": "[2]; Avastin Dose 4 mg/kg", "value": 12.56, "unit": "%"}, {"measurement": "Mean Tumor Volume (mm^3)", "setting": "[2]; Avastin Dose 4 mg/kg twice a week for 6 weeks", "value": "2089 ± 251", "unit": "mm^3"}, {"measurement": "% Complete Regression", "setting": "[2]; Avastin Dose 4 mg/kg, day 65", "value": 0, "unit": "%"}, {"measurement": "metastasis by luciferase activity in tissue extracts", "setting": "[3]", "value": "did not significantly inhibit metastasis"}, {"measurement": "effect of addition on in vitro cytotoxicity of Abraxane", "setting": "cells [4]", "value": "increased the in vitro cytotoxicity of Abraxane®"}, {"measurement": "number of colonies formed", "setting": "cells [5]", "value": "slight reduction in the number of colonies formed"}]}, {"molecule": "CNGRC-GG-d(KLAKLAK)2 [HKP]", "values": [{"measurement": "tumor volume", "setting": "[6]", "value": "4,372 mm^3"}]}]}
